In patent publication US20230322721A1 (OSLO UNIVERSITETSSYKEHUS HF, priority 2020, published 2023):
pIC50: −log10 of the molar value. Read-outs that look alike come from different tables or passages of the source.

Key:
[1] = Metabolic stability in human liver microsomes (HLM); assay type: in vitro ADME
Experimental: (§1) Metabolic stability was investigated in mouse liver microsomes (MLM) and in human liver microsomes (HLM): […] Incubations were performed at 37° C. Control incubations with reference substances were included for each experiment. […] After the last time point, the quench plates were mixed thoroughly and centrifuged for 15 minutes at 3700 rpm and 10° C. (Eppendorf 5804R). The supernatant was transferred to new 96 well plates and subjected to LCMS analysis. The disappearance of the parent compound was determined.

TNKS2 = TNKS2 (Homo sapiens (Human), UniProt Q9H2K2); experiment: Biochemical IC50 TNKS2
Chain of TNKS2 (Q9H2K2 whole entry): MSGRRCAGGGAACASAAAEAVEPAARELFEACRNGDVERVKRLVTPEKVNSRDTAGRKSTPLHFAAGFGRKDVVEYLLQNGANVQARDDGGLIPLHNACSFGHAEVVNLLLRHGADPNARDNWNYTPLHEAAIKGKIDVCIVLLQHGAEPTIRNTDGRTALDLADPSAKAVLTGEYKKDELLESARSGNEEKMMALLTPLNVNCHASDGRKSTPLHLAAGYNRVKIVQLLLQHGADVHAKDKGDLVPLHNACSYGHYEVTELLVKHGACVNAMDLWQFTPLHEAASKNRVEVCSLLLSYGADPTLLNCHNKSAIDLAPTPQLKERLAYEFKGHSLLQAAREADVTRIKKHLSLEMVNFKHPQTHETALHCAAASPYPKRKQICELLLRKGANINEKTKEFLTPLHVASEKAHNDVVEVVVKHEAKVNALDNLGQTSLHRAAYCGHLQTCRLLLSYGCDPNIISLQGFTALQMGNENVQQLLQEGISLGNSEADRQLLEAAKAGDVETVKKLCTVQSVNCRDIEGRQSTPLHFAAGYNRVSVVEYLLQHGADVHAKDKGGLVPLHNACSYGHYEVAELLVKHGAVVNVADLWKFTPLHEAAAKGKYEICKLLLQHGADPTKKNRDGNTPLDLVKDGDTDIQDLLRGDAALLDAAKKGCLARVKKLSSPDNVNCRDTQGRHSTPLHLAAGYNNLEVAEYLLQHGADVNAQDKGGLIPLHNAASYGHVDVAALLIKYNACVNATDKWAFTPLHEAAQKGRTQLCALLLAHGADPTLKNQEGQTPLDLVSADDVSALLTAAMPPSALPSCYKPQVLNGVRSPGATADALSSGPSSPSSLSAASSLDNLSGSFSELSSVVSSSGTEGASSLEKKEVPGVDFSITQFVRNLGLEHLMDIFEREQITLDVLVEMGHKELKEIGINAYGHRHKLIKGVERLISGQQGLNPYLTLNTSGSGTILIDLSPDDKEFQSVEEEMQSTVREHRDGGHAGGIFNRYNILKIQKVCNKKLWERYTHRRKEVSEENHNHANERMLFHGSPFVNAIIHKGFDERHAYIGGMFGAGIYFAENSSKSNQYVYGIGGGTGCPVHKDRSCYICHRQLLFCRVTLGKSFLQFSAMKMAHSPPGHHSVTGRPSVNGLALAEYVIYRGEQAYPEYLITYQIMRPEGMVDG
Source text: (§2) XLfit (idbs) was used to determine the IC50-values in inhibition experiments. The following formula was chosen to fit the data points (Langmuir Binding Isotherm): fit=((A+(B*x))+(((C−B)*(1−exp((−1*D)*x)))/D)), res=(y−fit).

HEK293 = experiment: Cellular IC50 HEK293; assay type: cell-based
Source text: as §2

[2] = Metabolic stability in mouse liver microsomes (MLM); assay type: in vitro ADME
Experimental: as §1

[3] = 1 μM compound, 0.5 mg/ml microsomal protein, 37° C.
[4] = read-out: Biochemical IC50 TNKS2
[5] = Homo sapiens, HEK293; read-out: Cellular IC50 HEK 293
[6] = Homo sapiens, HEK293; read-out: Cellular IC50 HEK293
[7] = Homo sapiens, HEK293, read-out: Cellular IC50 HEK 293
[8] = Homo sapiens, HEK293, read-out: Cellular IC50 HEK293
[9] = pH 7.4, 1 μM compound, 0.5 mg/ml microsomal protein, 37° C.

SMILES	pIC50 (HEK293; [5])	pIC50 (HEK293; [6])	other results
CCOc1ccc(-c2nnc([C@H]3C[C@H](NC(=O)c4cccc5nccnc45)C3)n2-c2ccccc2F)[n+]([O-])c1 [Example 5, 5-ethoxy-2-(4-(2-fluorophenyl)-5-((1r,3R)-3-(quinoxaline-5-carboxamido)cyclobutyl)-4H-1,2,4-triazol-3-yl)pyridine 1-oxide]	–	–	HLM Clint average [1, 3]: 8 μl/min/mg protein; HLM t1/2 average [1, 3]: >90 min; pIC50 (TNKS2; [4]): 8.89; pIC50 (HEK293; HEK293; read-out: Cellular IC50 HEK293): 9.12; MLM Clint average [2, 3]: 15 μl/min/mg protein; MLM t1/2 average [2, 3]: >90 min
CCOc1ccc(-c2nnc([C@H]3C[C@H](NC(=O)c4cccc(C(=O)N(C)C)n4)C3)n2-c2ccccc2F)nc1 [Example 9]	6.72	6.73	–
CCOc1ccc(-c2nnc([C@H]3C[C@H](NC(=O)c4cccc5[nH]c(=O)ccc45)C3)n2-c2ccccc2F)nc1 [Example 13, N-(trans-3-(5-(5-ethoxypyridin-2-yl)-4-(2-fluorophenyl)-4H-1,2,4-triazol-3-yl)cyclobutyl)-2-oxo-1,2-dihydroquinoline-5-carboxamide]	< 5.00	< 5.00	–
CCOc1ccc(-c2nnc([C@H]3C[C@H](NC(=O)c4cccc(C(=O)N5CCC5)n4)C3)n2-c2ccccc2F)nc1 [Example 10, 6-(azetidine-1-carbonyl)-N-(trans-3-(5-(5-ethoxypyridin-2-yl)-4-((S)-2-fluorophenyl)-4H-1,2,4-triazol-3-yl)cyclobutyl)picolinamide]	–	–	pIC50 (HEK293; [7]): 7.39; pIC50 (HEK293; [8]): 7.39
CCOc1ccc(-c2nnc([C@H]3C[C@H](NC(=O)c4cccc(=O)[nH]4)C3)n2-c2ccccc2F)nc1 [Example 11, N-(trans-3-(5-(5-ethoxypyridin-2-yl)-4-(2-fluorophenyl)-4H-1,2,4-triazol-3-yl)cyclobutyl)-6-oxo-1,6-dihydropyridine-2-carboxamide]	5.55	5.56	–
CCOc1ccc(-c2nnc([C@H]3C[C@H](NC(=O)c4cccc5nccnc45)C3)n2-c2ccccc2F)nc1 [Example 154 of WO 2019/243822, reference compound]	–	–	clearance in HLM (in words) [1]: moderate clearance; microsomal CLint at 1 μM [1, 9]: 40 µL/min/mg; half-life at 1 μM ([1]; pH 7.4, 1 μM compound, 0.5 mg/ml microsomal protein, 37° C., read-out: HLM t1/2 average): 35 min; pIC50 (TNKS2; [4]): 8.74; pIC50 (HEK293; [8]): 9.28; clearance in MLM (in words) [2]: high clearance; microsomal CLint at 1 μM [2, 9]: 81 µL/min/mg; half-life at 1 μM ([2]; pH 7.4, 1 μM compound, 0.5 mg/ml microsomal protein, 37° C., read-out: MLM t1/2 average): 17 min
CCOc1ccc(-c2nnc([C@H]3C[C@H](NC(=O)c4cccc5cc(O)ccc45)C3)n2-c2ccccc2F)nc1 [Example 12]	< 5.00	< 5.00	–
CCOc1ccc(-c2nnc([C@H]3C[C@H](NC(=O)c4cc[n+]([O-])c5cc(O)cnc45)C3)n2-c2ccccc2F)nc1 [Example 27, 4-((trans-3-(5-(5-ethoxypyridin-2-yl)-4-(2-fluorophenyl)-4H-1,2,4-triazol-3-yl)cyclobutyl)carbamoyl)-7-hydroxy-1,5-naphthyridine 1-oxide]	–	–	pIC50 (TNKS2): 8.77; pIC50 (HEK293; [7]): 7.66; pIC50 (HEK293; [8]): 7.66
CCOc1ccc(-c2nnc([C@H]3C[C@H](NC(=O)c4cccc5c4nc(C)c(C)[n+]5[O-])C3)n2-c2ccccc2F)nc1 [Example 24, 5-((trans-3-(5-(5-ethoxypyridin-2-yl)-4-(2-fluorophenyl)-4H-1,2,4-triazol-3-yl)cyclobutyl)carbamoyl)-2,3-dimethylquinoxaline 1-oxide]	–	–	pIC50 (HEK293; [7]): 8.43; pIC50 (HEK293; [8]): 8.43
CCOc1ccc(-c2nnc([C@H]3C[C@H](NC(=O)c4cccc(C(=O)NC)n4)C3)n2-c2ccccc2F)nc1 [Example 8, N2-(trans-3-(5-(5-ethoxypyridin-2-yl)-4-((S)-2-fluorophenyl)-4H-1,2,4-triazol-3-yl)cyclobutyl)-N6-methylpyridine-2,6-dicarboxamide]	7.68	7.68	–
CCOc1ccc(-c2nnc([C@H]3C[C@H](NC(=O)c4cccc(S(N)(=O)=O)c4)C3)n2-c2ccccc2F)nc1 [Example 16, N-(trans-3-(5-(5-ethoxypyridin-2-yl)-4-(2-fluorophenyl)-4H-1,2,4-triazol-3-yl)cyclobutyl)-3-sulfamoylbenzamide]	5.64	5.65	–
CCOc1ccc(-c2nnc([C@H]3C[C@H](NC(=O)c4ccc5cccc(O)c5n4)C3)n2-c2ccccc2F)nc1 [Example 21, N-(trans-3-(5-(5-ethoxypyridin-2-yl)-4-(2-fluorophenyl)-4H-1,2,4-triazol-3-yl)cyclobutyl)-8-hydroxyquinoline-2-carboxamide]	7.14	7.14	pIC50 (TNKS2; [4]): 7.90
CCOc1ccc(-c2nnc([C@H]3C[C@H](NC(=O)c4cccc(C(N)=O)n4)C3)n2-c2ccccc2F)nc1 [Example 7, N-(trans-3-(5-(5-ethoxypyridin-2-yl)-4-(2-fluorophenyl)-4H-1,2,4-triazol-3-yl)cyclobutyl)pyridine-2,6-dicarboxamide]	7.15	7.15	–
CCOc1ccc(-c2nnc([C@H]3C[C@H](NC(=O)c4cc[n+]([O-])cc4)C3)n2-c2ccccc2F)nc1 [Example 19, 4-((trans-3-(5-(5-ethoxypyridin-2-yl)-4-(2-fluorophenyl)-4H-1,2,4-triazol-3-yl)cyclobutyl)carbamoyl)pyridine 1-oxide]	7.47	7.47	–
CCOc1ccc(-c2nnc([C@H]3C[C@H](NC(=O)c4cccc(O)c4)C3)n2-c2ccccc2F)nc1 [Example 15, N-(trans-3-(5-(5-ethoxypyridin-2-yl)-4-(2-fluorophenyl)-4H-1,2,4-triazol-3-yl)cyclobutyl)-3-hydroxybenzamide]	6.89	6.89	–
CCOc1ccc(-c2nnc([C@H]3C[C@H](NC(=O)c4cccc5c(O)ccnc45)C3)n2-c2ccccc2F)nc1 [Example 14, N-(trans-3-(5-(5-ethoxypyridin-2-yl)-4-(2-fluorophenyl)-4H-1,2,4-triazol-3-yl)cyclobutyl)-4-hydroxyquinoline-8-carboxamide]	8.07	8.07	–
CCOc1ccc(-c2nnc([C@H]3C[C@H](NC(=O)c4cccc5c4ccc[n+]5[O-])C3)n2-c2ccccc2F)nc1 [Example 25, 5-((trans-3-(5-(5-ethoxypyridin-2-yl)-4-(2-fluorophenyl)-4H-1,2,4-triazol-3-yl)cyclobutyl)carbamoyl)quinoline 1-oxide]	–	–	pIC50 (TNKS2): 6.01; pIC50 (HEK293; [7]): 5.00; pIC50 (HEK293; [8]): 5.00
CCOc1ccc(-c2nnc([C@H]3C[C@H](NC(=O)c4cc[n+]([O-])c5cccnc45)C3)n2-c2ccccc2F)nc1 [Example 26, 4-((trans-3-(5-(5-ethoxypyridin-2-yl)-4-(2-fluorophenyl)-4H-1,2,4-triazol-3-yl)cyclobutyl)carbamoyl)-1,5-naphthyridine 1-oxide]	8.85	8.85	pIC50 (TNKS2; [4]): 8.59
CCOc1ccc(-c2nnc([C@H]3C[C@H](NC(=O)c4cc[n+]([O-])c5cc(F)cnc45)C3)n2-c2ccccc2F)nc1 [Example 29, 4-((trans-3-(5-(5-ethoxypyridin-2-yl)-4-(2-fluorophenyl)-4H-1,2,4-triazol-3-yl)cyclobutyl)carbamoyl)-7-fluoro-1,5-naphthyridine 1-oxide]	8.55	8.55	–
CCOc1ccc(-c2nnc([C@H]3C[C@H](NC(=O)c4cccc5c(N(C)C)ccnc45)C3)n2-c2ccccc2F)nc1 [Example 22]	7.82	7.82	pIC50 (TNKS2; [4]): 8.68
CCOc1ccc(-c2nnc([C@H]3C[C@H](NC(=O)c4cccc5cc(O)cnc45)C3)n2-c2ccccc2F)nc1 [Example 23, N-(trans-3-(5-(5-ethoxypyridin-2-yl)-4-(2-fluorophenyl)-4H-1,2,4-triazol-3-yl)cyclobutyl)-3-hydroxyquinoline-8-carboxamide]	8.44	8.44	pIC50 (TNKS2; [4]): 8.89
CCOc1ccc(-c2nnc([C@H]3C[C@H](NC(=O)c4ccc[n+]([O-])c4)C3)n2-c2ccccc2F)nc1 [Example 18, 3-((trans-3-(5-(5-ethoxypyridin-2-yl)-4-(2-fluorophenyl)-4H-1,2,4-triazol-3-yl)cyclobutyl)carbamoyl)pyridine 1-oxide]	< 5.00	< 5.00	–
CCOc1ccc(-c2nnc([C@H]3C[C@H](NC(=O)c4cc[n+]([O-])c5cc(OC)cnc45)C3)n2-c2ccccc2F)nc1 [Example 28, 4-((trans-3-(5-(5-ethoxypyridin-2-yl)-4-(2-fluorophenyl)-4H-1,2,4-triazol-3-yl)cyclobutyl)carbamoyl)-7-methoxy-1,5-naphthyridine 1-oxide]	–	–	pIC50 (TNKS2): 8.46; pIC50 (HEK293; [7]): 8.92; pIC50 (HEK293; [8]): 8.92
CCOc1ccc(-c2nnc([C@H]3C[C@H](NC(=O)c4cccc(N)n4)C3)n2-c2ccccc2F)nc1 [Example 20, 6-amino-N-(trans-3-(5-(5-ethoxypyridin-2-yl)-4-(2-fluorophenyl)-4H-1,2,4-triazol-3-yl)cyclobutyl)picolinamide]	7.57	7.57	pIC50 (TNKS2; [4]): 8.14
